In brackets after ≈: the same amount, converted by molar mass.
Columns and labels:
in vitro [1] = conditions: plasma
PC12-G93A-YFP cell line = assay: cytotoxicity protection assay against mutant SOD1-induced cytotoxicity; format: cell-based; conditions: read-out: Potency (EC50)
[2] = ref our previous work; cited from earlier work
in vitro [3] = conditions: mouse, microsomes

SMILES: O=C1CC(=O)N(CCc2ccccc2)C(=O)N1CCc1ccccc1 [Compound 1, 1,3-bis(2-phenylethyl)pyrimidine-2,4,6(1H,3H,5H)-trione]
- half-life (in vitro [1]): 63.5 min
- solubility (physchem): 31.3 µM (≈ 10.5 µg/mL)
- EC50 (PC12-G93A-YFP cell line): 1.68 µM
- maximum tolerated dose [2]: 100 mg/kg
- half-life (in vitro [3]): 16 min
